Assay results: patent US20260232827A1, “ANTIBODY-DRUG CONJUGATES TARGETING NAPI2B AND METHODS OF USE” (Zymeworks BC Inc., priority 2023, published 2026)

Key:
[1] = tested on: Construct 5 (chimeric human NaPi2b, region 304-348); assay: Binding region mapping, flow cytometry on transfected HEK293-6e cells; details: 24 hours at 4° C.
Procedure: (§1) Following incubation and washing, fluorescence was detected by flow cytometry on a BD LSRFortessa™ Cell Analyzer (BD Biosciences, Franklin Lake, NJ) with 1,000 minimum events collected per well.

[2] = target: T1, human NaPi2b (Homo sapiens, UniProt O95436); assay: Flow cytometry binding to transfected HEK293-6e cells; details: huNaPi2b (full length human NaPi2b), 24 hours at 4° C.
T1 construct: Full length human NaPi2b; host or cells: HEK293-6e
T1 sequence (O95436 1-690): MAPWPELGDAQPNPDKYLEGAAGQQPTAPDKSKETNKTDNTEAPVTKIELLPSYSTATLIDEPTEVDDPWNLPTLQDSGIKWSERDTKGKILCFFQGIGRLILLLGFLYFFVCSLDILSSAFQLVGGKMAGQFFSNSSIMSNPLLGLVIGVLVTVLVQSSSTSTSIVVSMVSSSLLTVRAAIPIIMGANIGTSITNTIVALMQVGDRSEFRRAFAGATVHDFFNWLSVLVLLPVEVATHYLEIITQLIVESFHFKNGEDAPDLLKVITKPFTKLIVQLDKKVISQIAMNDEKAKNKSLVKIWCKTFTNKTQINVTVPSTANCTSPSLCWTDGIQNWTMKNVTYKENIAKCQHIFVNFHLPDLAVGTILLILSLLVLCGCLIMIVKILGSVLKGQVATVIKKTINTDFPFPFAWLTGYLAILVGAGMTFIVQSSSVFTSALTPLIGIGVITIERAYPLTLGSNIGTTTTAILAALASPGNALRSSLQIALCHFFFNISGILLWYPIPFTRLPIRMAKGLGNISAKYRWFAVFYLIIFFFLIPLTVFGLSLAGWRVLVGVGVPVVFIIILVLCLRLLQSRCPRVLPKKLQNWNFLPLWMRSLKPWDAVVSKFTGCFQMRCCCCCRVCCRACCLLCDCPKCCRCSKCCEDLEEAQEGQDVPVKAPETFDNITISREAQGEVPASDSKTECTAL
Procedure: The binding cross-reactivity of humanized antibody variant v29456 to human, cynomolgus and mouse NaPi2b was assessed by flow cytometry using HEK293-6e transfected cells.
Following staining and washing, fluorescence was detected by flow cytometry on BD LSRFortessa™ Cell Analyzer (BD Biosciences, Franklin Lake, NJ) with 10,000 minimum events collected per well. The AF647/APC-A GeoMean (fluorescence signal geometric mean, proportional to anti-Human AF647 binding) was calculated for the live singlet cell population for each primary antibody using FlowJo™ v8 software (BD Biosciences, Franklin Lake, NJ). The Bmax and Kd of each primary antibody were calculated using GraphPad Prism Version 9 (GraphPad Software, San Diego, CA)
as §1, §1, §1

## palivizumab [palivizumab (v21995)]
[1]; antibody 2.0 nM
  Background-Subtracted AF647 Mean Fluorescence Intensity: -2
[1]; antibody 20.0 nM
  Background-Subtracted AF647 Mean Fluorescence Intensity: 123
[1]; antibody 200.0 nM
  Background-Subtracted AF647 Mean Fluorescence Intensity: 40
[2]; antibody 2.0 nM
  Background-Subtracted AF647 Mean Fluorescence Intensity: -22
[2]; antibody 20.0 nM
  Background-Subtracted AF647 Mean Fluorescence Intensity: 13
[2]; antibody 200.0 nM
  Background-Subtracted AF647 Mean Fluorescence Intensity: 19
